Experimental data as given in PMC6030077, “Dual role of HDAC10 in lysosomal exocytosis and DNA repair promotes neuroblastoma chemoresistance” (Scientific Reports, 2018).
“Also recorded” adds a separate entry of the source.

Columns and labels:
BE(2)-C cells [1] = assay: Pulse-chase analysis of doxorubicin secretion/retention; assay type: cell-based, human; settings: 12 h pre-treatment, 1 µg/ml doxorubicin 3 h, washout, relative to t0
Procedure: To test whether HDAC10 inhibition prolonged the retention of doxorubicin, we used a pulse-chase approach in which BE(2)-C cells were pre-treated over night with HDAC6/10 inhibitors and then loaded with high concentrations of doxorubicin for 3 h (1 µg/ml). After doxorubicin washout, HDAC6/10 or HDAC6 inhibitors were re-added (t0), and intracellular doxorubicin fluorescence was measured at t0, as well as 3 h (t3h) and 6 h (t6h) after doxorubicin removal (Fig. 5h–k). […] In summary, secretion of doxorubicin was slowed down in case of HDAC6/10 inhibition but not by specific HDAC6 inhibition alone.
(§1) For flow cytometric quantification of intracellular doxorubicin after HDAC6/10 inhibition, BE(2)-C, SK-N-AS, IMR-32, HAP1 wild type and HDAC10 knockout cells were seeded in 6-well dishes at a density of 1.5 ∗ 10^5 cells/well (BE(2)-C and SK-N-AS, HAP1) and 3 ∗ 10^5 cells/well (IMR-32). Cells were treated with 25 ng/ml, 50 ng/ml, 100 ng/ml or 1 µg/ml doxorubicin, respectively, for 3–48 h (see respective figure legend). Where indicated, cells were co-treated with HDAC6/10 or lysosomal inhibitors. In case of co-treatment with vacuolin-1, vacuolin-1 was directly added to cells under doxorubicin treatment 1 h or 24 h prior to analysis. Flow cytometric quantification of intracellular doxorubicin after HDAC6, HDAC10 or P-glycoprotein knockdown in BE(2)-C cells was performed 5 days (P-glycoprotein) or 6 days (HDAC6/10) after transfection with siRNA. To that end, cells were seeded 3–4 days after transfection into 6-well dishes at 1.5 ∗ 10^5 cells per well and treated with 100 ng/ml doxorubicin +/− HDAC6/10 and lysosomal inhibitors for the last 24 h. After doxorubicin treatment, BE(2)-C, SK-N-AS, IMR-32 and HAP1 cells were washed with ice-cold RPMI w/o phenol-red and detached using Trypsin/EDTA for 3 minutes at 37 °C. Cells were centrifuged, resuspended in RPMI w/o phenol red and doxorubicin fluorescence was quantified on a BD FACSCanto II platform using the PE filter setting.

BE(2)-C cells [2] = assay: Flow cytometric analysis of LysoTracker DND-99 staining (lysosomal accumulation); assay type: cell-based, human; settings: for lysosomal accumulation (LysoTracker staining): 24 h, bufexamac 30 µM, tubastatin A 7.5 µM, tubacin 7.5 µM, VPA 1 mM, vacuolin-1 10 µM
Procedure: Six days after siRNA transfection or 24 h after treatment with HDAC or lysosomal inhibitors, cells were stained for 1 h with 50 nM LysoTracker® Red DND-99 in medium under standard cell culture conditions. Cells were washed with ice-cold RPMI w/o phenol-red and detached using Trypsin/EDTA for 3 minutes at 37 °C. Cells were centrifuged, resuspended in RPMI w/o phenol red and LysoTracker® Red fluorescence was quantified on a BD FACSCanto II platform using the PE filter setting.

HDAC6 = assay: Western blot analysis of tubulin K40 acetylation as a marker for HDAC6 inhibition; assay type: cell-based, human; settings: 24 h; bufexamac 30 µM, tubastatin A 7.5 µM, tubacin 7.5 µM
Procedure: Western blot analysis was performed as previously described. The following antibodies were used: anti-HDAC6 (sc-11420, Santa Cruz), anti-HDAC10 (H3413, Sigma), anti-acetylated histone H3 (06-911, Merck Millipore), anti-histone H3 (9715, Cell Signaling Technology, Cambridge UK), anti-LAMP-1 (H4A3, DHSB, Iowa City, IA, USA), anti-LAMP-2 (H4B4; Santa Cruz Biotechnology), anti-acetylated tubulin (6–11B-1; Sigma), anti-tubulin (2148, Cell Signaling Technology), anti P-glycoprotein (13978 S, Cell Signaling Technology) and anti-β-actin (clone AC-15; Sigma).

BE(2)-C cells [3] = assay: Flow cytometric quantification of intracellular doxorubicin accumulation, BE(2)-C; assay type: cell-based, human; settings: for intracellular doxorubicin after co-treatment: 48 h, bufexamac 30 µM, tubastatin A 7.5 µM, tubacin 7.5 µM
Procedure: as §1

BE(2)-C cells [4] = assay: Flow cytometric analysis of cell surface LAMP-1 (lysosomal exocytosis); assay type: cell-based, human; settings: 6 h tubastatin A 7.5 µM, bufexamac 30 µM, tubacin 7.5 µM, vacuolin-1 10 µM 1 h
Procedure: (§2) Cells were dissociated from dishes using non-enzymatic cell dissociation reagent for five minutes. Cells were counted using a ViCell XR automatic cell counter (Beckmann Coulter) and 2.5 ∗ 10^5 cells were transferred into a pre-cooled 96-well round bottom plate (TPP92097). Cells were stained for 1.5–2 hours on ice with primary anti P-gp (Biozol ABA-AB00143-1.1), LAMP-1 (H4A3, DHSB) antibody or isotype control (DLN-05794, Dianova, Barcelona, Spain) and for 1 hour with APC-labeled secondary antibody (Dianova 115-136-068). Cells were washed three times in FACS buffer (5% FBS in PBS) after each antibody incubation step. For evaluation of DNA double-strand breaks, cells were detached from dishes using trypsin, counted using a ViCell XR automatic cell counter (Beckmann Coulter) and transferred into a pre-cooled 96-well round bottom plate (4 ∗ 10^6 cells/well). Cells were fixed and permeabilized using the eBioscience^TM Foxp3/Transcription Factor Staining Buffer Set (Thermo Fisher Scientific). Cells were stained for 1.5 h with Phospho-Histone H2A.X (S139) primary antibody (CST #9718) and for 1 h in Alexa-488-labeled secondary antibody (ThermoFisher A-11008). Cells were washed three times in 1× permeabilization buffer after each antibody incubation step and fluorescence was quantified on a BD FACSCanto II platform.

HDACs 1–3 = assay: Western blot analysis of histone H3 acetylation; assay type: cell-based, human; settings: 1 mM, 6 h
Procedure: Western blot analysis was performed as previously described. […] (b) Western blot analysis of histone H3 […] class IIb HDAC inhibitor tubastatin A, respectively. Numbers below blot indicate histone H3 acetylation normalized to total histone H3 expression and relative to DMSO treated control. Bands of indicated proteins were developed on the same blot. (c) Flow cytometric analysis of LysoTracker DND-99 staining in BE(2)-C cells 24h after treatment with class I HDAC inhibitor VPA and class IIb HDAC inhibitor tubastatin A. Statistical analyses were performed on non-normalized data using paired, two-tailed t-test (***p < 0.001; **0.001 ≤ p < 0.01; *0.01 ≤ p < 0.05). Error bars represent SEM. 3 (1 picture or pasted object on this page, not shown here)

BE(2)-C cells [5] = assay: Cell viability, automated trypan blue exclusion, BE(2)-C; assay type: cell-based, human; settings: 100 ng/ml doxorubicin; for viability of BE(2)-C cells, single treatment: 7.5 µM tubastatin A or vacuolin-1 alone; for viability of BE(2)-C cells, combination with doxorubicin, 24 h, compared to doxorubicin alone: 10 µM verapamil or vacuolin-1
Procedure: Adherent cell lines were trypsinized and cells were pooled with corresponding supernatant, centrifuged and resuspended in 1.5 ml cell culture media. Cell viability was measured by automated trypan blue staining with the Vi-Cell XR Cell Viability Analyzer from Beckman Coulter (Krefeld, Germany).

BE(2)-C cells [6] = assay: Alkaline single cell gel electrophoresis assay (comet assay); assay type: cell-based, human; settings: 18 h, tubastatin A 7.5 µM or doxorubicin 100 ng/ml
Procedure: BE(2)-C cells were treated with the HDAC6/10 inhibitor tubastatin A alone or in combination with the genotoxic drug doxorubicin (100 ng/ml doxorubicin, 7.5 µM tubastatin) for 18 h. Untreated cell aliquots and cells irradiated with 5 Gy (^137Cs radiation source, dose rate of 1 Gy min^−1) were used as negative and positive controls, respectively. Cells were subsequently analyzed by the alkaline comet assay as previously described[68],[69] with some modifications. In brief, the cells were mixed with 0.7% low-melting temperature agarose (Biozym), plated on two-well slides (Trevigen), and subsequently lysed overnight. Single cell electrophoresis was performed at 4 °C. Analysis of DNA damage was accomplished by fluorescence microscopy using a fully automated cell scanning system Metafer-4 (Metasystems) as described in[70]. DNA damage was assessed as “Tail DNA in %”. Statistical evaluation of two differently treated cell aliquots was performed with the Mann Whitney test using GraphPad Prism version 5.04 for Windows.

BE(2)-C cells [7] = assay: Flow cytometric analysis of γH2A.X staining (DNA double-strand breaks); assay type: cell-based, human; settings: 24 h, tubastatin A 7.5 µM, vacuolin-1 10 µM; for DSBs (γH2A.X), treatment alone in the absence of doxorubicin: verapamil 10 µM
Procedure: as §2, with “Cells were stained for 1.5–2 hours on ice with primary anti P-gp (Biozol ABA-AB00143-1.1), LAMP-1 (H4A3, DHSB) antibody or isotype control (DLN-05794, Dianova, Barcelona, Spain) and for 1 hour with APC-labeled secondary antibody (Dianova 115-136-068).” left out, “Cells were stained for 1.5 h with Phospho-Histone H2A.X (S139) primary antibody (CST #9718) and for 1 h in Alexa-488-labeled secondary antibody (ThermoFisher A-11008).” left out

[8] = system: proliferating human fibroblasts; assay: Flow cytometric analysis of cellular doxorubicin fluorescence, fibroblasts; assay type: cell-based; settings: 100 ng/ml doxorubicin 48 h; tubastatin A 7.5 µM, vacuolin-1 10 µM, verapamil 10 µM
P-glycoprotein = assay: Flow cytometric quantification of cell surface P-gp expression; assay type: cell-based, human; settings: BE(2)-C; 6 h tubastatin A 7.5 µM; vacuolin-1 10 µM 1 h
Procedure: as §2

## O=C(CCCCCCC(=O)Nc1ccc([C@H]2O[C@@H](CSc3nc(-c4ccccc4)c(-c4ccccc4)o3)C[C@@H](c3ccc(CO)cc3)O2)cc1)NO [tubacin]
BE(2)-C cells [1]
  retention of intracellular doxorubicin 3 h and 6 h after doxorubicin removal: had no effect
BE(2)-C cells [2]
  lysosomal accumulation (LysoTracker staining): did not
HDAC6
  HDAC6 inhibition (tubulin K40 acetylation): substantially inhibited HDAC6
BE(2)-C cells [3]; 100 ng/ml doxorubicin
  intracellular doxorubicin after co-treatment: did not alter cellular doxorubicin content

## CCCCOc1ccc(CC(=O)NO)cc1 [bufexamac]
BE(2)-C cells [1]
  retention of intracellular doxorubicin 3 h and 6 h after doxorubicin removal: retained higher levels of intracellular doxorubicin
BE(2)-C cells [2]
  lysosomal accumulation (LysoTracker staining): caused lysosomal accumulation
HDAC6
  HDAC6 inhibition (tubulin K40 acetylation): substantially inhibited HDAC6; also recorded: lowest potency against HDAC6
BE(2)-C cells [3]; 100 ng/ml doxorubicin
  intracellular doxorubicin after co-treatment: increased intracellular doxorubicin
BE(2)-C cells [3]; 12 h pre-treatment with inhibitor, then 1 µg/ml doxorubicin for 3 h
  intracellular doxorubicin levels, short-term: increased intracellular doxorubicin levels
BE(2)-C cells [4]
  cell surface LAMP-1 levels: reduced surface LAMP-1 levels

## CCCC(CCC)C(=O)O [VPA, valproic acid]
BE(2)-C cells [2]
  lysosomal accumulation (LysoTracker staining): did not induce lysosomal accumulation
HDACs 1–3
  inhibition of HDACs 1–3 (histone H3 acetylation): substantially inhibiting HDACs 1–3

## COc1cccc2c1C(=O)c1c(O)c3c(c(O)c1C2=O)C[C@@](O)(C(=O)CO)C[C@@H]3O[C@H]1C[C@H](N)[C@H](O)[C@H](C)O1 [doxorubicin]
BE(2)-C cells [5]
  viability of BE(2)-C cells, single treatment: did not substantially reduce cell viability
BE(2)-C cells [6]
  DSBs in comet assays, single treatment: increased DSBs only trend-wise

## CN(C)Cc1c(C(=O)NCCOc2ccc(C(=O)NO)cc2)oc2ccccc12 [abexinostat]
BE(2)-C cells [2]; 24 h treatment
  concentrations at which lysosomal accumulation is induced: ≥ 100 nM
BE(2)-C cells [2]; Homo sapiens, 24 h treatment, read-out: LysoTracker staining (lysosomal accumulation) EC50
  EC50: 183 nM
BE(2)-C cells [3]; 100 ng/ml doxorubicin, 24 h co-treatment
  concentrations at which intracellular doxorubicin amounts are increased: greater than or equal to 500 nM

## COc1ccc(CCN(C)CCCC(C#N)(c2ccc(OC)c(OC)c2)C(C)C)cc1OC (centres unmarked) [verapamil]
BE(2)-C cells [5]; 10 µM verapamil
  viability of BE(2)-C cells, combination with doxorubicin, 48 h, compared to doxorubicin alone: not significant
BE(2)-C cells [5]
  viability of BE(2)-C cells, combination with doxorubicin, 24 h, compared to doxorubicin alone: only slightly reduced cell viability
BE(2)-C cells [7]
  DSBs (γH2A.X), treatment alone in the absence of doxorubicin: did not induce DSBs
BE(2)-C cells [3]; 100 ng/ml doxorubicin 24 h, 10 µM verapamil
  basal levels of doxorubicin in cells: increased the basal levels of doxorubicin
[8]
  intracellular doxorubicin in fibroblasts: strongly increase doxorubicin accumulation

## Ic1cccc(/C=N/Nc2nc(N3CCOCC3)nc(N(c3ccccc3)c3ccccc3)n2)c1 [vacuolin-1]
BE(2)-C cells [5]
  viability of BE(2)-C cells, single treatment: no substantial effect
  viability of BE(2)-C cells, combination with doxorubicin, 24 h, compared to doxorubicin alone: strongly reduced cell viability
BE(2)-C cells [1]
  retention of intracellular doxorubicin 3 h and 6 h after doxorubicin removal: retained higher levels of intracellular doxorubicin
BE(2)-C cells [7]; 100 ng/ml doxorubicin
  DSBs (γH2A.X), co-treatment with doxorubicin compared to doxorubicin alone: increased doxorubicin induced DSBs
BE(2)-C cells [7]
  DSBs (γH2A.X), treatment alone in the absence of doxorubicin: did not induce DSBs on its own
BE(2)-C cells [2]
  lysosomal accumulation (LysoTracker staining): increased LysoTracker staining
P-glycoprotein
  cell surface P-gp levels: slightly increased surface P-gp levels
BE(2)-C cells [3]; 100 ng/ml doxorubicin 48 h, 10 µM vacuolin-1
  doxorubicin accumulation with lysosomal exocytosis inhibitor: promoted doxorubicin accumulation
[8]
  intracellular doxorubicin in fibroblasts: did not exhibit strongly increased intracellular doxorubicin
BE(2)-C cells [4]
  cell surface LAMP-1 levels: robustly reduced surface LAMP-1
